Experiment [1] concerns chick chorioallantoic membrane (CAM). As to the kind of experiment: Chick chorioallantoic membrane (CAM) angiogenesis assay. It counts as in vivo, chick (white Leghorn embryos). The settings on record: VEGF 20 ng, positive control, 48 hours.
Procedure: Fertilized 3-day old white Leghorn eggs (CWRU, Squire valley farms) were cracked, and embryos with the yolk intact were placed in 100 mm×20 mm glass bottom Petri dishes. […] CAMs implanted with discs loaded with unmodified dipeptide, HSA, control buffer or with vascular endothelial growth factor (VEGF) were used as negative and positive controls respectively. After 48 hours of incubation, India ink was injected into the vascular system for better visualization of the vessels by a stereomicroscope. Images were captured with a Panasonic CCD camera. Samples were always compared on the same CAM to avoid egg-to-egg variability. For quantitative analysis of vessel density and leakage, CAM images were batch processed using customized macros generated in Image-Pro Plus 5.0 (Media Cybernetics, Silver Spring, Md.). Briefly, a region of interest (ROI) was traced around grafted tissue in each image, each image was then cropped to its ROI, converted to grayscale, and processed using a large spectral filter to enhance the appearance of vasculature whilst omitting presence of larger vessels (determined by filter width). […]
The protein preparations were analyzed for endotoxin and determined to be free of contamination.
Experiment [2] has as its system rat cornea (limbal blood vessels). As to the kind of experiment: Rat corneal micropocket assay, angiogenic response to implanted pellets. Type of experiment: in vivo, Sprague-Dawley rats. The settings on record: pellet 1 mm from limbus, CEP-HSA 1 μg, CEP-dipeptide 37 ng, dipeptide 41 ng.
Procedure: Hydron/sucralfate pellets containing unmodified or CEP modified HSA or dipeptide with or without neutralizing antibodies (monoclonal mouse anti-human VEGF, 1.5 μg, R&D systems (MAB293) or monoclonal anti-CEP antibody (Gu, X., et al. (2003) J. Biol. Chem.), 4 μg) were inserted into corneal micropockets (1 mm from the limbus) of Sprague-Dawley rats. Control mouse IgM, 4 μg (eBioscience, cat. #14-4752) and mouse IgG, 1.5 μg (Southern Biotechnology Inc., cat. #0104-01) antibodies were used in control pellets for comparison with anti-CEP and anti-VEGF antibodies respectively. Corneas were examined daily with the aid of a surgical microscope to monitor angiogenic responses to CEP modified peptide or proteins. […] A positive neovascularization response was recorded only if sustained directional in-growth of capillary sprouts and hairpin loops toward the pellet was observed. A negative response was recorded when either no growth is observed or only an occasional sprout or hairpin loop showing no evidence of sustained growth was detected. […] Angiogenic response was analyzed for peak vascular extension and total skeletal (vascular) length using Image-Pro Plus 5.0 (Media Cybernetics, Silver Spring, Md.). […] The resulting image, a single segmented object representing the overall dimensions of the vascular bed, was analyzed for maximum box-width, i.e. extent of vessel penetration. […]

As to VEGF, in experiment [1], the “average skeletal density of CAM vessels” value is reported as about 3.1. On to “acetyl-Gly-Lys-O-methyl ester [dipeptide]”, for which, in experiment [2], the “growth of limbal blood vessels towards the pellet” value is “did not induce this effect”.

The record behind these values is patent US8137991B2, “Methods of reducing angiogenesis of age-related macular degeneration (AMD) or choroidal neovascularization by an anti-carboxyetheylpyrrole (CFP) antibody” (The Cleveland Clinic Foundation, priority 2006, dated 2012).
